The results in this text go back to patent publication US12358963B2, “Regenerative polypeptides and uses thereof” (Juvena Therapeutics, Inc., priority 2019, dated 2025).

Holding throughout (type): cell-based
For experiment [1], the system named is DM1 human myoblast. Description: DM1 human myoblast fusion (% eMyHC area). The note with it: 96h; vehicle 0.45. How it is done:
(§1) Bar graph of % EdU+ human myoblast (person) and % area MyHC in response to IGF2. Myoblast were cultured 72h for proliferation and 96h for fusion in the presence of indicated factor. Mean∓S.D. Mean∓SD. Significant p-values (EdU: Vehicle˜IGF2: 6.8E-3, % eMyHC Area: Vehicle˜IGF2: 1.9E-4) (*p<0.05 by Students Two-Tailed T-test, n=3-6).
(§2) IGF2 was tested individually for its ability to promote proliferation and/or fusion of human muscle progenitor cells from an individual with myotonic dystrophy type 1 (hMD)—a muscular dystrophy caused by mutations in the DMPK1 gene. The effect of IGF2 on myogenic activity was assayed in biological triplicate across a range of concentrations centered around expected physiological levels by adding each factor to hMD myoblasts for 72 hours with daily media changes (DMEM +2% horse serum) and a second pulse of factors at the first media change. After 72 or 96 hours, cells were pulsed for 2-5 hours with EdU (30 uM), ethanol fixed, stained with Hoescht 3342, immunostained for proliferation—as measured by the percent of cells staining positive for EdU (% EdU)—, and immunostained for differentiation—as measured by the increase in cellular area staining positive for embryonic myosin heavy chain (% eMyHC) relative to the negative controls, which received media and vehicle only. […]

Another experiment deals with human myoblast cells. Description: Human myoblast differentiation, % area eMyHC (IGF2, sodium butyrate). The settings on record: 96h, vehicle 6.813. How it is done:
Fresh media was added every 24 hours. […] The total area of eMyHc positive cells was analyzed, and treated cells were compared to cells treated with the vehicle alone. […] Myoblast were cultured 96h in the presence of BMP7 at indicated dose. Fresh media and BMP7 was added every 24h. Mean∓S.D. (*p<0.05 by One-Way Anova Tukey Honest Significant Difference, n=2-12) […] Fresh media was added every 24 hours. […] FIG. 3A: Bar graph of % Area eMyHC+ age human myoblast (person) in response to indicated treatment compared to Vehicle (vehicle). Myoblast were cultured 96h in the presence of factors at indicated dose. Fresh media and factors were added every 24h. Mean∓S.D. Significant p-values (Vehicle IGF2: 0.03 ug/mL: 1.42E-08, Vehicle NaBut: 1 nM IGF2: 0.03 ug/mL: 1.79E-11, Vehicle NaBut: 10 nM IGF2: 0.03 ug/mL: 1.80E-11, Vehicle NaBut: 100 nM IGF2: 0.03 ug/mL: 1.79E-11). […] Myoblast were cultured 96h in the presence of BMP7 at indicated dose. Mean±S.D. Significant p-values (IGF2 NaBut: 1 nM IGF2: 0.03 ug/mL: 1.88E-3, Vehicle NaBut: 10 nM IGF2: 0.03 ug/mL: 4.80E-3, Vehicle NaBut: 100 nM IGF2: 0.03 ug/mL: 1.87E-3) (*p<0.05 by One-Way ANOVA Tukey Honest Significant Difference, n=2-12)

Experiment [2] has as its system aged human myoblast cell lines. Briefly: Myogenic gene RNA expression in aged human myoblasts by real-time qPCR. How it is done: Myogenic gene RNA expression (fold change to FM) in response to vehicle (FM) in mouse myoblast cell lines monitored by real-time qPCR. Myoblast were cultured 48h in fusion media. Mean±SD. n=3. (Y,Z) Differential induction of myogenic gene expression by FGF17 in human myoblast myoblasts. Quantitation table of myogenic gene RNA expression (fold change to FM-fusion media (DMEM+2% horse serum)) in response to FM or rh-FGF17 in aged human myoblast cell lines by real-time qPCR. Myoblast were cultured (B) 48 hours or (C) 72 hours in FM. Mean∓SD. n=3.
RNA was isolated from each well (RNeasy Mini Kit, Qiagen) and cDNA was obtained by reverse-transcription (High Capacity Reverse Transcription Kit, Thermo Fisher Scientific). Real-time quantitative PCR was performed using QuantStudio3 (Thermo Fisher).
Aged human myoblasts were cultured in well plates. […] Cells that had been cultured with IGF2 had increases in levels of MYOG at 48 hours and levels of MYOD at 72 hours.
On the technique in general: Real-time PCR tracks product formation cycle by cycle.

For experiment [3], the system named is DM1 human myoblast. Briefly: Gene expression fold change in DM1 human myoblast. The settings on record: IGF2 200 ng/mL.
The test system of experiment [4] is DM1 human myoblast. Briefly: DM1 human myoblast proliferation (EdU). The settings on record: 72h; vehicle 1.0. How it is done:
as §1, §2

Where [5] appears, read: 48h, BMP7 50 ng/mL, Butyrate 100 nM, FM 1.000.

Take IGF2: IGF2 polypeptide, IGF1R agonist: the “% eMyHC are” value in the experiment with DM1 human myoblast [1] was 5.49%. Also, the “% eMyHC” value in the experiment with human myoblast cells (IGF2 0.015 ug/mL) is 10.843%; with human myoblast cells (IGF2 0.03 ug/mL, aged human myoblast), 16.620%. Moreover, the “MYOD1 RNA expression (fold change to FM)” value in experiment [2] (48 hr, FM 1.001) was 0.519; in experiment [2] (72 hr, FM 1.055), 5.723. The “MYOG RNA expression (fold change to FM)” value in experiment [2] (48 hr, FM 1.013) is reported as 5.756; in experiment [2] (72 hr, FM 1.092), 0.018. The “MYF5 RNA expression (fold change to FM)” value in experiment [2] (48 hr, FM 1.04) is 0.409; in experiment [2] (72 hr, FM 1.023), 0.708. Besides, the “ATP1B1 expression fold change compared to FM (vehicle)” value with DM1 human myoblast [3] (48h) came out at 3.018. The “MYF5 expression fold change compared to FM” value with DM1 human myoblast [3] (setting [5]) turned out to be 0.730. The “MYOD1 expression fold change compared to FM” value with DM1 human myoblast [3] (setting [5]) came out at 1.252. For the same substance, in the experiment on DM1 human myoblast [3] (setting [5]), the “MYOG expression fold change compared to FM” value was 2.972. Also, in the experiment with DM1 human myoblast [3] (96h), the “CKM expression fold change compared to vehicle” value stood at 5.165. The “MYH3 expression fold change compared to vehicle” value with DM1 human myoblast [3] (96h) is 14.833. Besides, the “EdU FC” value with DM1 human myoblast [4] was 2.18.
